Laboratory results: article PMC6934184, “Selective DNA-PKcs inhibition extends the therapeutic index of localized radiotherapy and chemotherapy” (The Journal of Clinical Investigation, 2019)

System: remaining 398 kinases
Assay: SelectScreen Broad Assay Panel, summary
Type: biochemical
Settings: 1 µM
Protocol: The in vitro kinase selectivity of NU5455 was determined using the SelectScreen Broad Assay Panel (Thermo Fisher Scientific) involving activity and binding assays (Supplemental Table 1). […] Class IA PI3Ks were measured using the p85α subunit.
Kinase [ATP] % Assay Kinase [ATP] % Assay Kinase [ATP] % Assay Kinase [ATP] % Assay
DNA-PK Km app 98.3 Z LATS2 n/a 4.7 L KIT D820E n/a 1.3 L GSK3B (GSK3 beta) Km app -2.5 Z
PIK3C3 (hVPS34) Km app 85.9 A PRKCZ (PKC zeta) Km app 4.7 Z GRK1 n/a 1.3 L BMPR2 n/a -2.5 L
PIK3C2B (PI3K-C2 beta) 10 28.9 A FGFR1 Km app 4.7 Z BRSK2 n/a 1.2 L CDC42 BPB (MRCKB) Km app -2.5 Z
SNF1LK2 Km app 26.6 Z MINK1 Km app 4.6 Z NUAK1 (ARK5) Km app 1.2 A AMPK (A2/B2/G2) n/a -2.6 L
HCK Km app 18.0 Z CSF1R (FMS) Km app 4.3 Z CDK9/cyclin K n/a 1.0 L PRKG1 Km app -2.7 Z
NEK2 Km app 17.8 Z CSNK1G3 (CK1 gamma 3) Km app 4.2 Z NUAK2 n/a 1.0 L KIT T670E n/a -2.8 L
ALK Km app 17.3 Z STK32C (YANK3) n/a 4.2 L CDK2/cyclin O n/a 0.9 L ERBB4 (HER4) Km app -2.8 Z
FGFR3 K650M n/a 16.5 L STK22D (TSSK1) Km app 4.2 Z CAMKK2 (CaMKK beta) n/a 0.9 L PLK4 n/a -2.8 L
SIK3 n/a 16.1 L TAOK3 (JIK) n/a 4.2 L FGFR3 Km app 0.9 Z GRK7 Km app -3.0 Z
LYN A Km app 15.2 Z RPS6KA4 (MSK2) Km app 4.2 Z ULK2 n/a 0.9 L MAPKAPK2 Km app -3.1 Z
BMPR1B (ALK6) n/a 14.5 L PTK2B (FAK2) Km app 4.2 Z KIT D816V n/a 0.9 L FGFR4 Km app -3.1 Z
INSRR (IRR) Km app 14.1 Z CLK2 Km app 4.1 Z CAMK1 (CaMK1) 10 0.8 A CASK n/a -3.1 L […]

## CN(C(=O)CN1CCOCC1)c1ccc2sc3c(-c4cccc5c(=O)cc(N6CC7CCC(C6)O7)oc45)cccc3c2c1 [NU5455]
  inhibition in the majority of the remaining 398 kinases: less than 10%
